Measured values taken from patent US9546156B2, “N-bicyclic aryl,N'-pyrazolyl urea, thiourea, guanidine cyanoguanidine compounds as TrkA kinase inhibitors” (Array BioPharma Inc., priority 2012, dated 2017).

Key:
Assay in all cases: Off-target kinase profiling (KinaseProfiler)
Assay type in all cases: biochemical
Settings in all cases: 10 μM, ATP near Km
Plk1 = biological target: T1, Plk1 (Homo sapiens, UniProt P53350)
T1 construct: purchased Millipore, Inc. (KinaseProfiler service)
Method in brief: (§1)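 ATP near Km for every kinase, compound at 10 μM, duplicate determinations; mean POC reported.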

CDK5/p25 = biological target: T2, CDK5/p25 (Homo sapiens, UniProt Q00535)
T2 construct: purchased Millipore, Inc. (KinaseProfiler service)
Method in brief: as §1

EphA3 = biological target: T3, EphA3 (Homo sapiens, UniProt P29320)
T3 construct: purchased Millipore, Inc. (KinaseProfiler service)
Method in brief: as §1

Axl = biological target: T4, Axl (Homo sapiens, UniProt P30530)
T4 construct: purchased Millipore, Inc. (KinaseProfiler service)
Method in brief: as §1

Syk = biological target: T5, Syk (Homo sapiens, UniProt P43405)
T5 construct: purchased Millipore, Inc. (KinaseProfiler service)
Method in brief: as §1

TSSK2 = biological target: T6, TSSK2 (Homo sapiens, UniProt Q96PF2)
T6 construct: purchased Millipore, Inc. (KinaseProfiler service)
Method in brief: as §1

HIPK2 = biological target: T7, HIPK2 (Homo sapiens, UniProt Q9H2X6)
T7 construct: purchased Millipore, Inc. (KinaseProfiler service)
Method in brief: as §1

CAMK1 = biological target: T8, CAMK1 (Homo sapiens, UniProt Q14012)
T8 construct: purchased Millipore, Inc. (KinaseProfiler service)
Method in brief: as §1

FGFR3 = biological target: T9, FGFR3 (Homo sapiens, UniProt P22607)
T9 construct: purchased Millipore, Inc. (KinaseProfiler service)
Method in brief: as §1

CDK2/cyclinE = biological target: T10, CDK2/cyclinE (Homo sapiens, UniProt P24941)
T10 construct: purchased Millipore, Inc. (KinaseProfiler service)
Method in brief: as §1

JAK2 = biological target: T11, JAK2 (Homo sapiens, UniProt O60674)
T11 construct: purchased Millipore, Inc. (KinaseProfiler service)
Method in brief: as §1

MuSK = biological target: T12, MuSK (Homo sapiens, UniProt O15146)
T12 construct: purchased Millipore, Inc. (KinaseProfiler service)
Method in brief: as §1

Ros = biological target: T13, Ros (Homo sapiens, UniProt P08922)
T13 construct: purchased Millipore, Inc. (KinaseProfiler service)
Method in brief: as §1

SIK = biological target: T14, SIK (Homo sapiens, UniProt P57059)
T14 construct: purchased Millipore, Inc. (KinaseProfiler service)
T14 sequence (P57059 whole entry): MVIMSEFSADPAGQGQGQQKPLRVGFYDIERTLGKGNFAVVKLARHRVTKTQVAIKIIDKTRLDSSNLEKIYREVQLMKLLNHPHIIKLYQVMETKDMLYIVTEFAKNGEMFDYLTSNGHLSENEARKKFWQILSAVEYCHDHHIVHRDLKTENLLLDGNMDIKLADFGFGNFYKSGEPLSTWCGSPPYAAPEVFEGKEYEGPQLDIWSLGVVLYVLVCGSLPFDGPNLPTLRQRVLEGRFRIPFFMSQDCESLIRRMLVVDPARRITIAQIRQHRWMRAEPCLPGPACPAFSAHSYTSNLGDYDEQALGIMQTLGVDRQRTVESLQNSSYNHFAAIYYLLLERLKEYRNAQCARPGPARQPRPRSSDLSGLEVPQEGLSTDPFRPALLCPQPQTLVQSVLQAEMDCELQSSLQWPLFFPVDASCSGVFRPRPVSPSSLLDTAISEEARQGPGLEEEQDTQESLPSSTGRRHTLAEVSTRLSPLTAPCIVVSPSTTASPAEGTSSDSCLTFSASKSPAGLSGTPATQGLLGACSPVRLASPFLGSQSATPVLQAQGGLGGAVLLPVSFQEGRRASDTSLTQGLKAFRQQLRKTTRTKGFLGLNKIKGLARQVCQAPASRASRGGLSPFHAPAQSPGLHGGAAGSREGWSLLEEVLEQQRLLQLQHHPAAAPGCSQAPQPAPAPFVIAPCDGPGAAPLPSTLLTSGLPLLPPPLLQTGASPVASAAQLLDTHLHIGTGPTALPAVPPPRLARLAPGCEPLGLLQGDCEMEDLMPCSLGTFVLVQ
Method in brief: as §1

TAO3 = biological target: T15, TAO3 (Homo sapiens, UniProt Q9H2K8)
T15 construct: purchased Millipore, Inc. (KinaseProfiler service)
Method in brief: as §1

Rsk2 = biological target: T16, Rsk2 (Homo sapiens, UniProt P51812)
T16 construct: purchased Millipore, Inc. (KinaseProfiler service)
Method in brief: as §1

ARK5 = biological target: T17, ARK5 (Homo sapiens, UniProt O60285)
T17 construct: purchased Millipore, Inc. (KinaseProfiler service)
Method in brief: as §1

Haspin = biological target: T18, Haspin (Homo sapiens, UniProt Q8TF76)
T18 construct: purchased Millipore, Inc. (KinaseProfiler service)
Method in brief: as §1

PKAC-alpha = biological target: T19, PKAC-alpha (Homo sapiens, UniProt P17612)
T19 construct: purchased Millipore, Inc. (KinaseProfiler service)
Method in brief: as §1

Rse = biological target: T20, Rse (Homo sapiens, UniProt Q06418)
T20 construct: purchased Millipore, Inc. (KinaseProfiler service)
Method in brief: as §1

CDK2/cyclinA = biological target: T21, CDK2/cyclinA (Homo sapiens, UniProt P24941)
T21 construct: purchased Millipore, Inc. (KinaseProfiler service)
Method in brief: as §1

TAO2 = biological target: T22, TAO2 (Homo sapiens, UniProt Q9UL54)
T22 construct: purchased Millipore, Inc. (KinaseProfiler service)
T22 sequence (Q9UL54 whole entry): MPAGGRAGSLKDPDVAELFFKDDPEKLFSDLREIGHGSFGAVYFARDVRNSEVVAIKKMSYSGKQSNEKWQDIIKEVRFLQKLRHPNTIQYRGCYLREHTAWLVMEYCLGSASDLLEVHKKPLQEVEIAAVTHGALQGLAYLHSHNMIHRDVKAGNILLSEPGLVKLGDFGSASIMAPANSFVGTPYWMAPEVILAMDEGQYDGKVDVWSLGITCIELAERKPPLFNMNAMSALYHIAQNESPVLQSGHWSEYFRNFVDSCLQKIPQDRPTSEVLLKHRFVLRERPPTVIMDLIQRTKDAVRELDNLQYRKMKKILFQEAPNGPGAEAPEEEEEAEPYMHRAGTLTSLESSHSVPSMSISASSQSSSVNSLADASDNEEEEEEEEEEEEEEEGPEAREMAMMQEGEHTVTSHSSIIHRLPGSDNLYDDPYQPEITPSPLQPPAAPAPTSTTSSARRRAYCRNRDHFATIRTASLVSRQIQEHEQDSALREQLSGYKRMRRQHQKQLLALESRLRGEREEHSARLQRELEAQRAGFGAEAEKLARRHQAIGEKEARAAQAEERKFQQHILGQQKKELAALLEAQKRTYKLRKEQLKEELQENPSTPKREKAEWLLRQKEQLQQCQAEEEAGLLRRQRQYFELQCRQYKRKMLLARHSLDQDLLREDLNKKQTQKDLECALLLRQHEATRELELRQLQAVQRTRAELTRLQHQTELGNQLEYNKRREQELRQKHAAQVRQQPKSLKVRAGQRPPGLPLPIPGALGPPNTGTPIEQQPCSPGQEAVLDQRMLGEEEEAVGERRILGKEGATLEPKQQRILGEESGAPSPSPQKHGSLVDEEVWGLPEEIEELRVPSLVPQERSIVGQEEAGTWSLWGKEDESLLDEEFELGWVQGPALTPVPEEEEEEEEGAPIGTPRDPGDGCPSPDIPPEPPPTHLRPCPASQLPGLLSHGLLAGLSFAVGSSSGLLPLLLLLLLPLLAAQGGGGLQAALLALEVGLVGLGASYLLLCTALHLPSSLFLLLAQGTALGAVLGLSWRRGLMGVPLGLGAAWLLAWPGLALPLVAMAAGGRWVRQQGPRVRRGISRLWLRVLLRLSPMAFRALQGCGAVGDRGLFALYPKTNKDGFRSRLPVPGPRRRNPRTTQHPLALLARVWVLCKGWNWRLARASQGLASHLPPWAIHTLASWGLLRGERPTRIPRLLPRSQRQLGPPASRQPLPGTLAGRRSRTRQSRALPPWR
Method in brief: as §1

MSK1 = biological target: T23, MSK1 (Homo sapiens, UniProt O75582)
T23 construct: purchased Millipore, Inc. (KinaseProfiler service)
Method in brief: as §1

MST3 = biological target: T24, MST3 (Homo sapiens, UniProt Q9Y6E0)
T24 construct: purchased Millipore, Inc. (KinaseProfiler service)
Method in brief: as §1

EphA7 = biological target: T25, EphA7 (Rattus norvegicus, UniProt P54759)
T25 construct: purchased Millipore, Inc. (KinaseProfiler service)
Method in brief: as §1

MAPKAP-K5 = biological target: T26, MAPKAP-K5 (Homo sapiens, UniProt Q8IW41)
T26 construct: purchased Millipore, Inc. (KinaseProfiler service)
Method in brief: as §1

MAPKAP-K2 = biological target: T27, MAPKAP-K2 (Homo sapiens, UniProt P49137)
T27 construct: purchased Millipore, Inc. (KinaseProfiler service)
Method in brief: as §1

PTK5 = biological target: T28, PTK5 (Homo sapiens, UniProt P42685)
T28 construct: purchased Millipore, Inc. (KinaseProfiler service)
Method in brief: as §1

DAPK2 = biological target: T29, DAPK2 (Homo sapiens, UniProt Q9UIK4)
T29 construct: purchased Millipore, Inc. (KinaseProfiler service)
Method in brief: as §1

ROCK-II = biological target: T30, ROCK-II (Homo sapiens, UniProt O75116)
T30 construct: purchased Millipore, Inc. (KinaseProfiler service)
Method in brief: as §1

PKCalpha = biological target: T31, PKCalpha (Homo sapiens, UniProt P17252)
T31 construct: purchased Millipore, Inc. (KinaseProfiler service)
Method in brief: as §1

AKT1 = biological target: T32, AKT1 (Homo sapiens, UniProt P31749)
T32 construct: purchased Millipore, Inc. (KinaseProfiler service)
Method in brief: as §1

p38gamma = biological target: T33, p38gamma (Homo sapiens, UniProt P53778)
T33 construct: purchased Millipore, Inc. (KinaseProfiler service)
Method in brief: as §1

Abl-P = biological target: T34, Abl-P (Homo sapiens, UniProt P00519)
T34 construct: purchased Millipore, Inc. (KinaseProfiler service)
T34 sequence (P00519 27-1130 limits assumed): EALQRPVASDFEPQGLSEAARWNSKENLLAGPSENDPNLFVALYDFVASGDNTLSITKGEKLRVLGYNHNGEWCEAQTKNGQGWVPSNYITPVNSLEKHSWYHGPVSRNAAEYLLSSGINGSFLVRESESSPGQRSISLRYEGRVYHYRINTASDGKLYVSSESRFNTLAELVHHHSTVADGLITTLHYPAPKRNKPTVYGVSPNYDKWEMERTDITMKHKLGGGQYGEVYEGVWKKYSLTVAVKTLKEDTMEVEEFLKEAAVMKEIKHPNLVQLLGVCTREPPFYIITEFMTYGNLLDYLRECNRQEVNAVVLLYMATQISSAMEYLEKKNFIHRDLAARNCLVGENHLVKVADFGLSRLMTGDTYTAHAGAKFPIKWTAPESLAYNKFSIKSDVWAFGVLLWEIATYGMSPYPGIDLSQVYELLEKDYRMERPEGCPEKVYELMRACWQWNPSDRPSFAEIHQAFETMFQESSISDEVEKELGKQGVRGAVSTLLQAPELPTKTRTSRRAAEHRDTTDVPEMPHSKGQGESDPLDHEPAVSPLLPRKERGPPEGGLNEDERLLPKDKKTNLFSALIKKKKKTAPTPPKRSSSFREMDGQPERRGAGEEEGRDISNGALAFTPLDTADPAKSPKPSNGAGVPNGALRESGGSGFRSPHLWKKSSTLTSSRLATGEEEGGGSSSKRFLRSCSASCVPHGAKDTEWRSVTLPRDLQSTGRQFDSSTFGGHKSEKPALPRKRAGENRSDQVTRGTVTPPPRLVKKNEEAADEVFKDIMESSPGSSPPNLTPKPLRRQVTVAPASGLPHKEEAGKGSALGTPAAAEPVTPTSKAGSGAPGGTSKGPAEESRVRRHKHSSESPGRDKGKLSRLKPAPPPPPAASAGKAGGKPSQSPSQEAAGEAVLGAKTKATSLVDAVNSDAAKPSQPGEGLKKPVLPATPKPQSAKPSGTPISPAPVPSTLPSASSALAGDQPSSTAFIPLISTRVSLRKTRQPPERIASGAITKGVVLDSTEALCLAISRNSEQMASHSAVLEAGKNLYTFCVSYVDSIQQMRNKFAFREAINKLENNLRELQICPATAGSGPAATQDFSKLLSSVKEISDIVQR
Method in brief: as §1

BLK_m = biological target: T35, BLK_m (Mus musculus, UniProt P16277)
T35 construct: purchased Millipore, Inc. (KinaseProfiler service)
T35 sequence (P16277 whole entry): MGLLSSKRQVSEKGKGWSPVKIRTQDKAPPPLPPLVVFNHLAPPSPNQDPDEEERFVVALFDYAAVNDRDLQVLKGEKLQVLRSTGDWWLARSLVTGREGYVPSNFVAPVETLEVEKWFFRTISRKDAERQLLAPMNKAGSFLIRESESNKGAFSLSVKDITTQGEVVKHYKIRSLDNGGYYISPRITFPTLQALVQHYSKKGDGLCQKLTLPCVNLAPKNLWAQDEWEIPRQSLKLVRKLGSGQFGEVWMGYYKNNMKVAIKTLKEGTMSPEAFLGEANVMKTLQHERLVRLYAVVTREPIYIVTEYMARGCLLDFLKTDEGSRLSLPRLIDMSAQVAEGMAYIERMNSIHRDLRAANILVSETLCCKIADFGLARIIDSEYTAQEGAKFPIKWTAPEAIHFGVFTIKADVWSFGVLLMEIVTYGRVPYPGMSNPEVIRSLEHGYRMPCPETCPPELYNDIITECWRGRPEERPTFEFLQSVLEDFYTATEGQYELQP
Method in brief: as §1

CDK6/cyclinD3 = biological target: T36, CDK6/cyclinD3 (Homo sapiens, UniProt Q00534)
T36 construct: purchased Millipore, Inc. (KinaseProfiler service)
Method in brief: as §1

Rsk1 = biological target: T37, Rsk1 (Homo sapiens, UniProt Q15418)
T37 construct: purchased Millipore, Inc. (KinaseProfiler service)
T37 sequence (Q15418 whole entry): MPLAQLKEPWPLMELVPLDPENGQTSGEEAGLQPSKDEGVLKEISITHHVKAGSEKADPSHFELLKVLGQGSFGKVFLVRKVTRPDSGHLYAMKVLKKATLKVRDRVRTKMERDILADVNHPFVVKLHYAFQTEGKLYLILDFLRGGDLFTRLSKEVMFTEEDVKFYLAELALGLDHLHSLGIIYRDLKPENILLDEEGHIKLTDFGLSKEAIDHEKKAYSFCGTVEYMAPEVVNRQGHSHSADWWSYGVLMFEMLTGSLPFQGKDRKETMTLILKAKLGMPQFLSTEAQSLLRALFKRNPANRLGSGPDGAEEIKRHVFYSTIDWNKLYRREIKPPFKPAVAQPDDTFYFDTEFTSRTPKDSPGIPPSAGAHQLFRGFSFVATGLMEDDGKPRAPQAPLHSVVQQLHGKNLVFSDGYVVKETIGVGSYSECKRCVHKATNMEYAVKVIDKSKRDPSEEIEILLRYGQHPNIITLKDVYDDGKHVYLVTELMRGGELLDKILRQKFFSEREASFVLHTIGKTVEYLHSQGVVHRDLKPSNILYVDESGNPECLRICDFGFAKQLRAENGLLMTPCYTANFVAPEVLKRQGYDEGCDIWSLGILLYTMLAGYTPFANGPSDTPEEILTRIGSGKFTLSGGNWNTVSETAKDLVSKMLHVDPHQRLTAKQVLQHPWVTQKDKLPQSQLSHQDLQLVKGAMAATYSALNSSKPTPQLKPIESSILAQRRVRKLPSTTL
Method in brief: as §1

PDK1 = biological target: T38, PDK1 (Homo sapiens, UniProt O15530)
T38 construct: purchased Millipore, Inc. (KinaseProfiler service)
T38 sequence (O15530 whole entry): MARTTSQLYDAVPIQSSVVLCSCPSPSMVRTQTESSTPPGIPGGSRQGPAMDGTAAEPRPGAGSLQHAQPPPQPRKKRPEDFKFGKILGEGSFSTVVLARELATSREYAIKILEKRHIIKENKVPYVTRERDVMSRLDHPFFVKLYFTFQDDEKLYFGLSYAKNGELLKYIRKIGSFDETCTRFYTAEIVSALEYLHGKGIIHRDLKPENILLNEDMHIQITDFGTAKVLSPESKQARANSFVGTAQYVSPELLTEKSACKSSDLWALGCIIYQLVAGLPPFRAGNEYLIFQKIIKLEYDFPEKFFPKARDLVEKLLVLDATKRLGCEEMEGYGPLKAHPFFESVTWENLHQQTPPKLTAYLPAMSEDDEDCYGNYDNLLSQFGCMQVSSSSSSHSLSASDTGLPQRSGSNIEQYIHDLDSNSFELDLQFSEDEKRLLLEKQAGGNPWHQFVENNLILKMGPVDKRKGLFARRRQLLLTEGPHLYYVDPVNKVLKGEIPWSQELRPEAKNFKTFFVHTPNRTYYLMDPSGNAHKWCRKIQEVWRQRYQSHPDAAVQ
Method in brief: as §1

mTOR = biological target: T39, mTOR (Homo sapiens, UniProt P42345)
T39 construct: purchased Millipore, Inc. (KinaseProfiler service)
Method in brief: as §1

SRC = biological target: T40, SRC (Homo sapiens, UniProt P12931)
T40 construct: purchased Millipore, Inc. (KinaseProfiler service)
Method in brief: as §1

NEK7 = biological target: T41, NEK7 (Homo sapiens, UniProt Q8TDX7)
T41 construct: purchased Millipore, Inc. (KinaseProfiler service)
Method in brief: as §1

Avg POC (Plk1): 95 POC
Avg POC (CDK5/p25): 110.5 POC
Avg POC (EphA3): 139.5 POC
Avg POC (Axl): 103.5 POC
Avg POC (Syk): 117.5 POC
Avg POC (TSSK2): 134 POC
Avg POC (HIPK2): 97 POC
Avg POC (CAMK1): 106 POC
Avg POC (FGFR3): 122 POC
Avg POC (CDK2/cyclinE): 143 POC
Avg POC (JAK2): 181 POC
Avg POC (MuSK): 94 POC
Avg POC (Ros): 117.5 POC
Avg POC (SIK): 121 POC
Avg POC (TAO3): 89.5 POC
Avg POC (Rsk2): 139.5 POC
Avg POC (ARK5): 103.5 POC
Avg POC (Haspin): 137.5 POC
Avg POC (PKAC-alpha): 134 POC
Avg POC (Rse): 120.5 POC
Avg POC (CDK2/cyclinA): 136 POC
Avg POC (TAO2): 119.5 POC
Avg POC (MSK1): 132 POC
Avg POC (MST3): 135 POC
Avg POC (EphA7): 107 POC
Avg POC (MAPKAP-K5): 122.5 POC
Avg POC (MAPKAP-K2): 128 POC
Avg POC (PTK5): 118.5 POC
Avg POC (DAPK2): 105.5 POC
Avg POC (ROCK-II): 105 POC
Avg POC (PKCalpha): 97 POC
Avg POC (AKT1): 129 POC
Avg POC (p38gamma): 116 POC
Avg POC (Abl-P): 147 POC
Avg POC (BLK_m): 106.5 POC
Avg POC (CDK6/cyclinD3): 121 POC
Avg POC (Rsk1): 226.5 POC
Avg POC (PDK1): 117.5 POC
Avg POC (mTOR): 110 POC
Avg POC (SRC): 121.5 POC
Avg POC (NEK7): 123 POC
Structure (SMILES): COCc1ccc2cccc(NC(=O)Nc3c(C)c(-c4cnn(C)c4)nn3-c3ccccc3)c2c1 [Example 16, 1-(1′,4-dimethyl-1-phenyl-1H,1′H-[3,4′-bipyrazol]-5-yl)-3-(7-(methoxymethyl)naphthalen-1-yl)urea]
